# Data as given in patent US6057419A, “Cascade polymer complexes, process for producing the same and pharmaceuticals containing the same” (Schering Aktiengesellschaft, priority 1995, dated 2000).
# Experiments:
# [1] = in vivo; cited from earlier work
# [2] = cited from earlier work
# [3] = In vivo comparison with an extracellular contrast medium: blood concentrations and pharmacokinetics in rats (ICP-AES, Topfit program); conditions: rats (n=3), i.v.
# Protocol: The suitability of the compound described in Example 1l as a blood-pool agent is shown in the following test.
# As test animals, three male (Schering-SPF) rats that are 200-250 g in weight are used. 0.2 ml (respectively 25 mmol/L) of the following contrast medium solution per animal is administered intravenously: mixture of 1 part each of the compound of 1l, named compound 1 below, and the dysprosium complex of 3,6,9-triaza-3,6,9-tris(carboxymethyl)-undecanedioicacid (Dy-DTPA), named compound 2 below. Blood samples are taken with a catheter in the common carotid artery at the following times: 1, 3, 5, 10, 15, 20, 30, 45, 60, 90, 120 minutes p.i. In the blood samples obtained, the concentrations of gadolinium (Gd) and dysprosium (Dy) are measured with the aid of atomic emission spectrometry (ICP-AES) in each case in a parallel manner. The portion of the injected contrast medium of compound 1 (Gd) and compound 2 (Dy, comparison substance), remaining in the blood space, can be compared in the same animals by the different marking. The a- and b-half-lives, the volume of distribution as well as the total clearance can be calculated from the blood concentrations with the aid of special software (Topfit program).
# Measured blood concentrations of Gd (compound 1) and Dy (compound 2) in rats (n=3)
# [4] = excretion tests in rats; cited from earlier work
molecule,measurement,setting,value
CNC[C@H](O)[C@@H](O)[C@H](O)[C@H](O)CO.CNC[C@H](O)[C@@H](O)[C@H](O)[C@H](O)CO.O=C([O-])CN(CCN(CC(=O)[O-])CC(=O)O)CCN(CC(=O)[O-])CC(=O)O.[Gd+3] [Magnevist],dispersion space (entire extracellular space: intravascular space and interstitium),[1],about 20 % of the volume of the body
CNC(=O)CN(CCN(CCN(CC(=O)[O-])CC(=O)NC)CC(=O)[O-])CC(=O)[O-].[Gd+3] [Omniscan],dispersion space (entire extracellular space: intravascular space and interstitium),[1],about 20 % of the volume of the body
CC(O)CN1CCN(CC(=O)[O-])CCN(CC(=O)[O-])CCN(CC(=O)[O-])CC1.[Gd+3] (stereo not shown) [Pro Hance],dispersion space (entire extracellular space: intravascular space and interstitium),[1],about 20 % of the volume of the body
COCC(=O)Nc1c(I)c(C(=O)NCC(O)CO)c(I)c(C(=O)N(C)CC(O)CO)c1I (stereo not shown) [Ultravist],dispersion space (entire extracellular space: intravascular space and interstitium),[1],about 20 % of the volume of the body
albumin-GdDTPA,concentration in the liver tissue,[2]; 24 h after intravenous injection in rats,~30 % of the dose
same,dose eliminated,"[2]; in 24 hours, rats, i.v.",20 % of the dose
"dysprosium complex of 3,6,9-triaza-3,6,9-tris(carboxymethyl)-undecanedioicacid [Compound 2, reference compound]",Vd ss (volume of distribution),[3],0.41 ± 0.04 L/kg
same,α-t1/2,[3]; blood,1.5 ± 0.5 min
same,β-t1/2,[3]; blood,19.2 ± 2.5 min
polylysine-GdDTPA,excretion (in words),[4],excreted unchanged by glomerular filtration through the kidneys
